Test results from ChEMBL document CHEMBL1201862, “PubChem BioAssay data set” (2004).
Blank lines part the entries; values can stand above or below the compound they belong to. Activity calls are given as the source filed them. Cut-off read from the data, not from the text of the source, for most assays here: actives have a measured IC50 and inactives only a lower limit.

Assays:
[1] = target: T1, Runt-related transcription factor 1/Core-binding factor subunit beta (Homo sapiens, UniProt Q01196+Q13951); test: Runt domain/CBFb-SMMHC interaction disruptors – biochemical, TR-FRET (AID 1438); assay type: protein assay
[2] = target: T1, Runt-related transcription factor 1/Core-binding factor subunit beta; test: disruptors of Runt domain/CBFb-SMMHC interaction – biochemical, FRET, Cerulean-Runt, Venus-CBFb-SMMHC, uHTS, […] (AID 1434); assay type: protein assay
[3] = target: Troponin, cardiac muscle (Homo sapiens, UniProt P19429+P45379+P63316); test: Fluorescence-based biochemical high throughput dose response assay for activators of the calcium sensitivity of cardiac Regulated Thin Filaments (RTF). [Related pubchem assays (depositor defined):AID493008, AID493018, AID504382, AID504383]; assay type: protein-complex assay
[4] = target: T2, CAAX prenyl protease 2 (Saccharomyces cerevisiae S288c, UniProt Q03530); assay type: biochemical
T2 sequence (Q03530 whole entry): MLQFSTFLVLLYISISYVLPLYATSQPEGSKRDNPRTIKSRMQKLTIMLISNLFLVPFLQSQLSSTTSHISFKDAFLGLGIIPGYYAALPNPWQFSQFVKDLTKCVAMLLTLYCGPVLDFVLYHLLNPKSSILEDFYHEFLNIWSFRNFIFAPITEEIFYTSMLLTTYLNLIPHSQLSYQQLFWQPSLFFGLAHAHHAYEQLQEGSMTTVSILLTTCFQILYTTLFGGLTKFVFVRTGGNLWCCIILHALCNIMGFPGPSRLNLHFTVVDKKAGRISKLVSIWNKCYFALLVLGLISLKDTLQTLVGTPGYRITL

[5] = toxicity toward cultured mammalian cells – cell-based, plate reader, cherry-pick samples, cytotoxicity control, dose response (AID 504397); assay type: functional
[6] = target: Tyrosine-protein phosphatase non-receptor type 12 (Homo sapiens, UniProt Q05209); test: SAR Selectivity Analysis of small molecule inhibitors of PEST using pCAP in a fluorescence assay. [Related pubchem assays (depositor defined):AID1779, AID1784, AID2135]; assay type: functional
[7] = target: T3, Tyrosine-protein phosphatase non-receptor type 22 (Homo sapiens, UniProt Q9Y2R2); test: SAR LYP1 Fluorescent Assay using OMFP substrate for In Vitro dose response studies - Set 3. [Related pubchem assays (depositor defined):AID1779, AID1784, AID2140, AID2686]; assay type: functional
T3 sequence (Q9Y2R2 whole entry): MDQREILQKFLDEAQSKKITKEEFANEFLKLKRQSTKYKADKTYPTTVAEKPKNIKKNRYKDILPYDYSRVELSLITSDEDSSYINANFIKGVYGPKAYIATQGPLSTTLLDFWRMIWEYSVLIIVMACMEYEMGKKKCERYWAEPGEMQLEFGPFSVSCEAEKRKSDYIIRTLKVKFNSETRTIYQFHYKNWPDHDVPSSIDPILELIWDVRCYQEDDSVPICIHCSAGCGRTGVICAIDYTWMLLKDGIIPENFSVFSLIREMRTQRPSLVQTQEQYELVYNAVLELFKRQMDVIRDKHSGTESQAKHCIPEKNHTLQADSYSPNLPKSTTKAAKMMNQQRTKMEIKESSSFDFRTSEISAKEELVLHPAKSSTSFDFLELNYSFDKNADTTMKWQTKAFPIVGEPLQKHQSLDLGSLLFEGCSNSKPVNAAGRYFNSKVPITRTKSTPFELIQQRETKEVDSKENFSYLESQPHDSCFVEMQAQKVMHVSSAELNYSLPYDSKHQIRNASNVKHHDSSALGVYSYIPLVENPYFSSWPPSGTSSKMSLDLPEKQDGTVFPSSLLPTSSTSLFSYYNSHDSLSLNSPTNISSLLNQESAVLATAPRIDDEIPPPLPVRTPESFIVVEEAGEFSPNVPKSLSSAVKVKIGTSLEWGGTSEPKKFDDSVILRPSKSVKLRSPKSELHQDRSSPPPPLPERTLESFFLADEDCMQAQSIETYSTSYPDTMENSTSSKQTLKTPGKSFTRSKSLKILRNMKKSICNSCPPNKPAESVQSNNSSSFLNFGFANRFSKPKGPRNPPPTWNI

[8] = target: T4, Tyrosine-protein phosphatase non-receptor type 7 (Homo sapiens, UniProt P35236); test: inhibition of hematopoietic tyrosine phosphatase HePTP – biochemical, set 2, SAR follow-up (AID 449736); assay type: functional
T4 sequence (P35236 whole entry): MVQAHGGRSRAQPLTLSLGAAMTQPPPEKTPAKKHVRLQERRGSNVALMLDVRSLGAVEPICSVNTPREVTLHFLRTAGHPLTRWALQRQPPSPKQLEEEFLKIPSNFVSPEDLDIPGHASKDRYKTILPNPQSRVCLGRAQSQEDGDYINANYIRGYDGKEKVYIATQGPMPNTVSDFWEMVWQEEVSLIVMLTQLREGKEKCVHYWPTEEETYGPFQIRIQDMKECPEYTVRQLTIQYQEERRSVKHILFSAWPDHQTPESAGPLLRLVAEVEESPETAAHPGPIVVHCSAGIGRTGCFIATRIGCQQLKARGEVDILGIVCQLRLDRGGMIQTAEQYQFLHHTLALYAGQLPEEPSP

[9] = target: T3, Tyrosine-protein phosphatase non-receptor type 22; test: SAR LYP1 Fluorescent Assay using OMFP substrate for In Vitro dose response studies - Set 2. [Related pubchem assays (depositor defined):AID1779, AID1784, AID2140, AID449726, AID488869]; assay type: functional
[10] = target: T3, Tyrosine-protein phosphatase non-receptor type 22; test: SAR LYP1 Fluorescent Assay using pCAP substrate for In Vitro dose response studies - Set 2. [Related pubchem assays (depositor defined):AID1779, AID1784, AID2135, AID449727]; assay type: functional
[11] = target: T3, Tyrosine-protein phosphatase non-receptor type 22; test: inhibition of lymphoid tyrosine phosphatase LYP – biochemical, pCAP fluorogenic substrate, fluorescence, set 3, SAR follow-up (AID 449727); assay type: functional

Structure (SMILES): N=c1c(C(=O)NCc2ccc(F)cc2)cc2c(=O)n3ccccc3nc2n1Cc1ccco1
IC50 [1]: 43.5 µM (active) | IC50 [2]: 3.78 µM (active)

EC50 [3]: > 71.5 µM (inactive)
Structure (SMILES): O=[n+]1c2c(n([O-])c3ccccc31)CCC2

Structure (SMILES): O=C(Nc1ccc(N2CCOCC2)c(Cl)c1)c1cc2ccccc2o1
AC50 [4]: 3.46 µM (active) | AC50 [5]: 260 µM (active)

IC50 [6]: > 100 µM (inactive) | IC50 [7]: > 100 µM (inactive) | IC50 [8]: > 100 µM (inactive) | IC50 [9]: > 100 µM (inactive) | IC50 [10]: > 100 µM (inactive) | IC50 [11]: > 100 µM (inactive)
Structure (SMILES): COc1ccccc1NS(=O)(=O)c1cccc(C(=O)NN=Cc2ccc(OCC(=O)O)cc2)c1
